The text below walks through data of patent US20120077801A1, “Chemical Compounds 637” (priority 2007, published 2012).

Assay [1] concerns the target T1, recombinant Human Phosphodiesterase B2 (PDE4B2) (Homo sapiens, UniProt Q07343). In words: Human Phosphodiesterase B2 Alpha Screen Assay. The format is biochemical. The note with it: Alpha Screen cAMP assay, 60 minutes incubation at room temperature, read-out: PDE4B2 pIC50 (converted). On the procedure: Human Phosphodiesterase B2 Alpha Screen Assay
The assay uses recombinant Human Phosphodiesterase B2 (PDE4B2) produced in house (PrAZL0133), stored at −20° C. The substrate uses cAMP, part of the Alpha Screen cAMP kit (Perkin Elmer, Cat#6760625M), stored at 4° C. The Alpha Screen kit also includes biotinylated cAMP, acceptor and donor beads.
The assay additions were as follows: Test compounds and controls were added to white 384-well flat-bottom plates (Greiner, Cat#781075), 0.2 μl in 100% DMSO, followed by 10 μl PDE4B2 in reaction buffer. The reaction buffer constitution was: 50 mM Tris (pH 7.5), 8.3 mM MgCl2, 1.7 mM EGTA and 0.01% (w/v) Brij®35. The enzyme and the compounds were incubated at room temperature for 15 minutes. Then 10 μl cAMP in reaction buffer was added. The assay was stopped after 60 minutes incubation at room temperature by adding 10 μl acceptor beads in detection buffer with 40 mM EDTA. The detection buffer constitution was: 5 mM Tris (pH 7.5), 0.1% (w/v) BSA and 0.1% (v/v) Tween 20. This addition followed by an addition of 10 μl donor beads in detection buffer, with biotinylated cAMP. The plates were then incubated, dark at room temperature, for 5 hours followed by measurement on a Fusion™-α analyser. pIC50 values (presented in Table 14) were determined using X1fit curve fitting using model 205.
(In general: Cyclic AMP is a second messenger, typically raised through Gs and lowered through Gi signalling.)

Assay [2] has as its target T1, recombinant Human Phosphodiesterase B2 (PDE4B2). In words: Human Phosphodiesterase B2 Radiometric Assay. The note with it: for IC50: read-out: PDE4B2 pIC50 (converted). In kind it is biochemical. On the procedure:
Human Phosphodiesterase B2 Radiometric Assay
The assay uses recombinant Human Phosphodiesterase B2 (PDE4B2) produced in house (PrAZL0163), stored at −20° C. This assay is based on the observation that 5′AMP, the product of the reaction catalysed by PDE4, binds preferentially to yttrium silicate SPA beads (Amersham Biosciences, UK) compared to the substrate, cAMP. Compounds at the appropriate concentration were preincubated at 30 C for 30 min. with an assay buffer containing 50 mM HEPES (pH 7.5), 8.3 mM MgCl2, 1.7 mM EGTA, 0.01% (w/v) Brij®35 and 0.1 μg/mL recombinant PDE4B2. The reaction was started by the addition of [3H]cyclic AMP to give a final concentration of 8 nM, and was stopped 20 minutes after the addition of the substrate by the addition of yttrium silicate SPA beads containing 18 mM Zn SO4. Bound [3H]cyclic AMP was measured using a Topcount NXT (Packard Bioscience, UK). pIC50 values (presented in Table 15) were determined using X1fit3 curve fitting, using model 205.

Where [3] appears, read: recombinant human PDE4B2, [3H]cyclic AMP 8 nM, SPA radiometric assay.

T1 sequence (Q07343 1-564 isoform Q07343-2): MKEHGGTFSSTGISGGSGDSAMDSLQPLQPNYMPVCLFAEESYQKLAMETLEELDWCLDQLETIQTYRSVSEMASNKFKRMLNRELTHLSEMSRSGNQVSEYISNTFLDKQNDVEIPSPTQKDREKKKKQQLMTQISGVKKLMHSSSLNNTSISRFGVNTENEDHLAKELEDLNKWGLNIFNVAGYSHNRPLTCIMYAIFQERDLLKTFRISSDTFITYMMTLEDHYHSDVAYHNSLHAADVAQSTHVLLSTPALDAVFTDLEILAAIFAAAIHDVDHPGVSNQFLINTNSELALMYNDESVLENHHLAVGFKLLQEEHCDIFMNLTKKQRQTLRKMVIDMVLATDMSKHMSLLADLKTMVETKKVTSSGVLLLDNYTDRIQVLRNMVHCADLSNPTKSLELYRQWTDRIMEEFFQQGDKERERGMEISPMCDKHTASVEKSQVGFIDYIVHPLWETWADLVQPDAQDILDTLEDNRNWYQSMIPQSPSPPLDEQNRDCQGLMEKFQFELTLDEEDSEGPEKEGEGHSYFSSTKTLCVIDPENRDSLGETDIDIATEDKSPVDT

In the case of `COC(=O)[C@H]1CC[C@H](n2c(=O)n([C@H]3CC[C@@H](NC(=O)C4CC4)CC3)c(=O)c3cc(F)cnc32)CC1` [Example 8, methyl trans-4-[3-{cis-4-[(cyclopropylcarbonyl)amino]cyclohexyl}-6-fluoro-2,4-dioxo-3,4-dihydropyrido[2,3-d]pyrimidin-1(2H)-yl]cyclohexanecarboxylate], in assay [1], the IC50 is 50.1 nM.

As for `CN1CCC(n2c(=O)n([C@H]3CC[C@@H](NC(=O)c4cn5cc(F)ccc5n4)CC3)c(=O)c3cc(F)cnc32)CC1` [Example 40, 6-fluoro-N-{cis-4-[6-fluoro-1-(1-methylpiperidin-4-yl)-2,4-dioxo-1,4-dihydropyrido[2,3-d]pyrimidin-3(2H)-yl]cyclohexyl}imidazo[1,2-a]pyridine-2-carboxamide], the “PDE4B2 % at 0.32 uM (printed in the pIC50 column)” value in assay [2] (at 0.32 uM, recombinant human PDE4B2, radiometric assay) is reported as 50% at 0.32 uM.

With `CN(C)CCCn1c(=O)n([C@H]2CC[C@@H](NC(=O)c3cn4cc(F)ccc4n3)CC2)c(=O)c2cc(F)cnc21` [Example 41, N-{cis-4-[1-[3-(dimethylamino)propyl]-6-fluoro-2,4-dioxo-1,4-dihydropyrido[2,3-d]pyrimidin-3(2H)-yl]cyclohexyl}-6-fluoroimidazo[1,2-a]pyridine-2-carboxamide], in assay [2] (setting [3]), the IC50 was 158 nM.

As to `O=C(NC1CN2CCC1CC2)c1cccc(-n2c(=O)n([C@H]3CC[C@@H](NC(=O)c4cn5cc(F)ccc5n4)CC3)c(=O)c3cc(F)cnc32)c1` (some centres unmarked) [Example 42], the “PDE4B2 pIC50” value in assay [2] (setting [3]) stood at 7.7.

For the molecule `O=C(N[C@H]1CC[C@@H](n2c(=O)c3cc(F)cnc3n(-c3cccc(OCCN4CCOCC4)c3)c2=O)CC1)c1cn2cc(F)ccc2n1` [Example 43, 6-fluoro-N-{cis-4-[6-fluoro-1-[3-(2-morpholin-4-ylethoxy)phenyl]-2,4-dioxo-1,4-dihydropyrido[2,3-d]pyrimidin-3 (2H)-yl]cyclohexyl}imidazo[1,2-a]pyridine-2-carboxamide], in assay [2] (setting [3]), the IC50 was 1 nM.
